From patent publication US20100310541A1, “Compositions and Methods for Reducing the Toxicity of Certain Toxins” (IRONWOOD PHARMACEUTICALS, INC., priority 2007, published 2010)
Entries after “also recorded” stand apart in the source; their conditions may differ.

Target: Escherichia coli heat stable enterotoxin (STa; SEQ ID NO: 1) (Escherichia coli, UniProt P07965)
Assay type: biochemical
Conditions: pH 8

## O[C@H](CS)[C@H](O)CS (racemic) [DTT, dithiothreitol]
  effect on SEQ ID NO:1 (LC/MS, FIG. 3): no visible effect
  reduction of SEQ ID NO:1 disulfide bonds (FIG. 5): a small amount of fully reduced peptide; also recorded: complete reduction
  reduction of native SEQ ID NO:1 based on peak area (FIG. 4): 47%
